This is an account of results in the supplement of paper PMC10307832.

Common to all, as to test: relative viability (nuclei count vs DMSO), 5 days (fraction); higher = more cells survive
Compound in assay [1]: CC1=NC=CC(=C1)C2=CC=C(C=C2)CC(=O)NC3=CC=C(C=C3)C4=CN=CC=C4 [Wnt-C59] + C[C@]1(O)C[C@@H](c2nc(-c3ccc4ccc(-c5ccccc5)nc4c3)c3c(N)nccn32)C1 [Linsitinib] (partner 1 µM)
Put shortly: (§1)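 Relative viability was taken as the ratio of nuclei in treated wells to nuclei in vehicle wells. Lung cancer cell lines in 1536-well plates received compounds by pin tool one day after seeding, either one drug alone or a fixed anchor-drug dose plus five library-drug doses (not always all listed) in √10 steps. Nuclei were counted on 4× images after 5 days of treatment, and values are medians of duplicate plates.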

Compound in assay [2]: CS(=O)(=O)CCNCc1ccc(-c2ccc3ncnc(Nc4ccc(OCc5cccc(F)c5)c(Cl)c4)c3c2)o1 [Lapatinib] + C[C@]1(O)C[C@@H](c2nc(-c3ccc4ccc(-c5ccccc5)nc4c3)c3c(N)nccn32)C1 [Linsitinib] (partner 1 µM)
Put shortly: as §1

Compound in assay [3]: CC1=NC=CC(=C1)C2=CC=C(C=C2)CC(=O)NC3=CC=C(C=C3)C4=CN=CC=C4 [Wnt-C59] + CC1(C)CCC(c2ccc(Cl)cc2)=C(CN2CCN(c3ccc(C(=O)NS(=O)(=O)c4ccc(N[C@H](CCN5CCOCC5)CSc5ccccc5)c(S(=O)(=O)C(F)(F)F)c4)cc3)CC2)C1 [Navitoclax] (partner 0.5 µM)
Put shortly: as §1

Compound in assay [4]: CC1=NC=CC(=C1)C2=CC=C(C=C2)CC(=O)NC3=CC=C(C=C3)C4=CN=CC=C4 [Wnt-C59] + CC(C)C[C@H](NC(=O)[C@H](Cc1ccccc1)NC(=O)c1cnccn1)B(O)O [Bortezomib] (partner 0.002 µM)
The essentials:
as §1

With SW 1573, the relative viability in assay [1] (first compound 0.001 µM) came out at 0.696; in assay [1] (first compound 0.01 µM), 0.806; in assay [1] (first compound 0.03162 µM), 0.874; in assay [1] (first compound 0.1 µM) it was 0.862; in assay [2] (first compound 0.02 µM), 0.843; in assay [2] (first compound 0.06325 µM) it was 0.82. For the same cell line, the relative viability in assay [2] (first compound 0.2 µM) worked out at 0.76; in assay [2] (first compound 0.6325 µM), 0.784; in assay [2] (first compound 2 µM), 0.794; in assay [3] (first compound 0.001 µM), 1.03; in assay [3] (first compound 0.01 µM) it was 1.04; in assay [3] (first compound 0.03162 µM), 1.09. For the same cell line, the relative viability in assay [3] (first compound 0.1 µM) stood at 0.989; in assay [4] (first compound 0.001 µM) it was 1.04; in assay [4] (first compound 0.01 µM), 1.1; in assay [4] (first compound 0.03162 µM), 1.11; in assay [4] (first compound 0.1 µM), 1.04.
